In patent US20250154525A1, “PLANT VIRUS MOVEMENT PROTEINS AND METHODS OF USING SAME” (Molecular Transfer, Inc., priority 2016, published 2025):

Legend:
HeLa Cells [1] = assay: GFP plasmid transfection with DOTMA/DOPE plus surface ligand peptide, fluorescent plate reader (Example 1); format: cell-based; conditions: DOTMA/DOPE + peptide linked to R12 or K16; EF1Alpha eGFP plasmid; 42 hours
Experimental: (§1) Cells were plated to so that on the day of transfection the cells were 70% confluent in 96 well tissue culture plates. A DOMTA/DOPE Lipid solution (1:1 molar ratio) at 2 mg/mL in water were mixed with an equal volume cell surface ligand containing adhesion peptide, the plant virus movement protein, or peptide derived therefrom, that had the nucleic acid binding moiety RRRRRRRRRRRR (SEQ ID NO:109) or KKKKKKKKKKKKKKKK (SEQ ID NO: 102) covalently linked to the N-terminus, or C-terminus of each peptide during peptide synthesis. Peptides were at 2 mg/mL in water. The DOTMA/DOPE and the solution containing the cell surface ligand containing adhesion peptide, the plant virus movement protein, or peptide derived therefrom, surface ligand peptide the was diluted 1 to 1 (v/v) in water. DOMTA/DOPE/PEPTIDE solutions were added to 0.1 mL of a plasmid DNA solution (EF1Alpha eGFP plasmid) at 10 μg/mL in OptiMEM.
(§2) All solutions were at room temperature. A volume of 0.2 mL of a 10 μg/mL solution of DNA was aliquoted into each well of a non-tissue cultured treated plate. 1-12 μL of transfection reagents were added to DNA solutions respectively. The transfection reagent and DNA solution was mixed by pipetting up and down twice. Transfection complexes were formed for 10 minutes. After 10 minutes, 0.01 or 0.02 mL of the transfection complex was added to cells. HuVEC, HeLa, human adult keratinocytes, human primary adult fibroblast, and A549 cells all respectively received 0.01 mL of the transfection complex. Human skeletal muscle cells, mouse C2C12 cells, and Jurkat, cells received 0.02 mL of the transfection complex. Cells were incubated for 42 hours at 37° C. at 5% CO2. Plates were read on a fluorescent plate reader. Cells were also examined visually under a microscope to assess the extent of transfection (in terms of the percent of cells transfected) with a fluorescent microscope. Other modes of analysis, for example quantification with B-galactocidase or luciferase reports plasmids can also be used.
(§3) Surface ligand that caused increase expression of GFP over the lipid DOTMA with no surface ligand were considered to enhance transfection or had higher % cells transfected were considered to enhance transfection. Peptides that gave greater than 2-fold enhancement are noted in bold and could be further optimized by adding different transfection enhancers or could be used with different cationic lipids or polymers.
(§4) Tables 2-7, below, provide the results of the transfection enhancements with the various cell types, while Table 8 lists the peptides that were determined by visual inspection to enhance the transfection of the denoted cell lines over the lipid DOTMA.

NL-1 iPS Cells = assay: as above; format: cell-based; conditions: DOTMA/DOPE + peptide linked to R12 or K16; EF1Alpha eGFP plasmid; 42 hours
Experimental: as §1, §2, §3, §4

Human Fibroblast Cells = assay: as above; format: cell-based; conditions: DOTMA/DOPE + peptide linked to R12 or K16; EF1Alpha eGFP plasmid; 42 hours
Experimental: as §1, §2, §3, §4

HuVec Cells = assay: as above; format: cell-based; conditions: DOTMA/DOPE + peptide linked to R12 or K16; EF1Alpha eGFP plasmid; 42 hours
Experimental: as §1, §2, §3, §4

Jurkat Cells = assay: as above; format: cell-based; conditions: DOTMA/DOPE + peptide linked to R12 or K16; EF1Alpha eGFP plasmid; 42 hours
Experimental: as §1, §2, §3, §4

some examined cell types = assay: Summary of Example 1: transfection expression and % cells transfected over the no peptide control; format: cell-based; conditions: on some examined cell types
Experimental: as §1, §2, §3

C2C12 Cells = assay: GFP plasmid transfection with DOTMA/DOPE plus surface ligand peptide, fluorescent plate reader (Example 1); format: cell-based, mouse; conditions: DOTMA/DOPE + peptide linked to R12 or K16; EF1Alpha eGFP plasmid; 42 hours
Experimental: as §1, §2, §3, §4

HeLa Cells [2] = assay: GFP transfection with DOTMA/SEQ ID NO: 72 (fusogenic peptide)/peptide compared with Lipofectamine 2000; format: cell-based
Experimental: as §1, §2
The fusogenic peptide was added to the DOMTA/peptide formulation to achieve a final concentration of 0.1 mg/mL to see if transfection reagents were further enhanced by the addition of a fusogenic peptide and could provide higher transfection efficiency into HeLa cells and expression than the commercially available Lipofectamine 2000.

[3] = 0.1 μL of DOTMA/SEQ ID NO: 72/Peptide in well of a 96 well plate
[4] = 0.2 μL of DOTMA/SEQ ID NO: 72/Peptide in well of a 96 well plate
[5] = 0.3 μL of DOTMA/SEQ ID NO: 72/Peptide in well of a 96 well plate
[6] = 0.4 μL of DOTMA/SEQ ID NO: 72/Peptide in well of a 96 well plate

Row | Substance | Relative Fluorescence of Transfection of HeLa Cells (RF) (HeLa Cells [1]) | Relative Fluorescence of Transfection of NL-1 iPS Cells (RF) (NL-1 iPS Cells) | Relative Fluorescence of Transfection of Human Fibroblast Cells (RF) (Human Fibroblast Cells) | Relative Fluorescence of Transfection of HuVec Cells (RF) (HuVec Cells) | Relative Fluorescence of Transfection of Jurkat Cells (RF) (Jurkat Cells) | transfection expression and % cells transfected over the no peptide control (some examined cell types) | Relative Fluorescence of Transfection of C2C12 Cells (RF) (C2C12 Cells) | Relative Fluorescence DOTMA/SEQ ID NO: 72/Peptide, HeLa Cells (RF) (HeLa Cells [2]; [3]) | Relative Fluorescence DOTMA/SEQ ID NO: 72/Peptide, HeLa Cells (RF) (HeLa Cells [2]; [4]) | Relative Fluorescence DOTMA/SEQ ID NO: 72/Peptide, HeLa Cells (RF) (HeLa Cells [2]; [5]) | Relative Fluorescence DOTMA/SEQ ID NO: 72/Peptide, HeLa Cells (RF) (HeLa Cells [2]; [6])
1 | 218 (SPPRRARVT) [compound 218] | 11179 | 17049 | 11230 | 14827 | 21451 | increased transfection expression and the % cells transfected | 3706 | 12686 | 13103 | 10151 | 10081
2 | 219 (RKRLQVQLSIRT) [compound 219] | 13721 | 5770 | 7389 | 6237 | 10762 | increased transfection expression and the % cells transfected | 1346 | 12135 | 13841 | 13531 | 11712
3 | 237 (KNSFMALYLSKG) [compound 237] | 21288 | 8632 | 2184 | 2302 | 1501 | increased transfection expression and the % cells transfected | 6491 | 8986 | 9753 | 8015 | 8288
4 | 256 (RQVFQVAYIIIKA) [compound 256] | 2243 | 1825 | 2656 | 3030 | 3322 | increased transfection expression and the % cells transfected | 3207 |  |  |  | 
5 | 268 (GGFLKYTVSYDI) [compound 268] | 25885 | 15697 | 4568 | 5403 | 3236 | increased transfection expression and the % cells transfected | 2568 | 10162 | 9934 | 10792 | 9519
6 | 323 (HQQDLGTAGSCLRKFSTMFLF) [compound 323] | 14067 | 21694 | 4826 | 12815 | 2900 | increased transfection expression and the % cells transfected | 7698 | 15537 | 16620 | 10839 | 9244
7 | 327 (VAEIDGIEL) [compound 327] | 5345 | 31383 | 4662 | 21018 | 14546 | increased transfection expression and the % cells transfected | 2043 |  |  |  | 
8 | 332 (TWYKIAFQRNRK) [compound 332] | 9198 | 8725 | 5178 | 4221 | 3052 | increased transfection expression and the % cells transfected | 537 |  |  |  | 
9 | 338 (GTPGPQGIA) [compound 338] | 6241 | 17288 | 5625 | 12000 | 4475 | increased transfection expression and the % cells transfected | 2290 |  |  |  | 
10 | 345 (TAGSCLRKFSTMFLF) [compound 345] | 8493 | 7836 | 2816 | 2939 | 2462 | increased transfection expression and the % cells transfected | 6569 |  |  |  | 
11 | 352 (RIQNLLKITNLRIKFVK) [compound 352] | 32126 | 11628 | 3059 | 3130 | 3150 | increased transfection expression and the % cells transfected | 3324 |  |  |  | 
12 | 354 (SINNTAVMQRLT) [compound 354] | 4403 | 24043 | 4998 | 19284 | 16705 | increased transfection expression and the % cells transfected | 1912 |  |  |  | 
13 | 359 (KAFDITYVRLKF) [compound 359] | 3136 | 5548 | 3206 | 3024 | 1880 | increased transfection expression and the % cells transfected | 5693 |  |  |  | 
14 | 361 (YIGSR) [compound 361] | 3698 | 9363 | 7014 | 6017 | 7006 | increased transfection expression and the % cells transfected | 585 |  |  |  | 
